Measured values from patent EP3228630A1, “COMBINATION OF AN APELIN ANTAGONIST AND AN ANGIOGENESIS INHIBITOR FOR THE TREATMENT OF CANCER” (IMBA-Institut für Molekulare Biotechnologie GmbH, priority 2016, dated 2017).

Test system: primary human endothelial cells (HUVECs)
Settings: Apelin Pyr13 500nM, human VEGF 25ng/mL, 5 minutes, serum-free media
Protocol: Antibody array pathway analysis: For the human phospho-kinase antibody array (R&D Systems), primary HUVEC (human umbilical vein endothelial cells) were cultured overnight with media supplemented with 0.75% of fetal bovine serum (FBS) followed by 15 minutes of media with 0.5%. The cells were then stimulated in serum-free media with either Apelin Pyr13 (BACHEM H-4568, 500nM), human VEGF (Peprotech, 25ng/mL), both of them or either for 5 minutes. 100 µg of cell lysate were added to the membrane and incubated overnight at 4°C with gentle agitation, following the manufacturer instructions. Films were scanned and the intensity of the bands quantified using ImageJ.

For apelin-13, the “pathways regulated (phospho-antibody array)” value was “regulate similar pathways in endothelial cells”.
